Columns and labels:
[1] = test system: Eimeria oocysts (E. acervulina, E. brunetti, E. maxima, E. mitis, E. necatrix and E. tenella); assay: Sporulation of Eimeria oocysts in different media, all species (Example 1); type: cell-based; settings: for Average sporulation % across all species: 48 hours at 27° C., 150 rpm, three replicates, six species
E. acervulina oocysts = type: cell-based; settings: for relative difference in oocyst counts compared to group 1 (percentage difference), R1: replicate R1, post sporulation; for relative difference in oocyst counts compared to group 1 (percentage difference), R3: replicate R3, post sporulation
E. brunetti oocysts = assay: Sporulation in different media: sporulation and post-sporulation oocyst count (Example 1); type: cell-based; settings: for relative difference in oocyst counts compared to group 1 (percentage difference), R1: replicate R1, post sporulation; for relative difference in oocyst counts compared to group 1 (percentage difference), R3: replicate R3, post sporulation
E. maxima oocysts [2] = type: cell-based; settings: for relative difference in oocyst counts compared to group 1 (percentage difference), R1: replicate R1, post sporulation; for relative difference in oocyst counts compared to group 1 (percentage difference), R3: replicate R3, post sporulation
E. mitis oocysts [3] = type: cell-based; settings: for relative difference in oocyst counts compared to group 1 (percentage difference), R1: replicate R1, post sporulation; for relative difference in oocyst counts compared to group 1 (percentage difference), R3: replicate R3, post sporulation
E. necatrix oocysts = assay: Sporulation in different media: sporulation and post-sporulation oocyst count (Example 1); type: cell-based; settings: for relative difference in oocyst counts compared to group 1 (percentage difference), R1: replicate R1, post sporulation; for relative difference in oocyst counts compared to group 1 (percentage difference), R3: replicate R3, post sporulation
E. tenella oocysts = type: cell-based; settings: for relative difference in oocyst counts compared to group 1 (percentage difference), R1: replicate R1, post sporulation; for relative difference in oocyst counts compared to group 1 (percentage difference), R3: replicate R3, post sporulation
[4] = test system: microorganisms other than the Eimeria; type: cell-based; settings: replicate sterility averaged across the 6 species; FIG. 13
Eimeria oocysts = assay: Sporulation at variable solids content (Example 2); type: cell-based; settings: 1%, 3% and 5% solids
[5] = test system: microorganisms other than the Eimeria; type: cell-based; settings: across 1%, 3% and 5% solids and all species
[6] = test system: Candida albicans ATCC 10231; settings: 27° C., FIG. 18A
Procedure: (§1) Each organism was exposed to each chemical mimicking the duration and conditions they would be used with for sporulation or sterilisation.
(§2) Organism suspensions were prepared by sub-culturing onto an appropriate growth plate and incubating under standard conditions. The growth was harvested and suspended in appropriate media. The starting titre for most organisms once inoculated into the test media was approximately ≤10^6 CFU/mL.
(§3) 0.1 mL of the harvested bacterial or fungal suspension was added to 9.9 mL of the solution being tested in a sterile glass vial (McCartney container). The inoculated solutions were incubated at 27° C. Zero hours samples were done with sterile water and not the solution being tested to determine a baseline for log reduction calculations. At the appropriate time point, 1 mL of sample was combined with 9 mL of sodium thiosulfate neutralizer (the 10:1 dilution). Serial dilutions in Peptone water (PEP) from 10^−2 to 10^−6 were plated out onto either TSA (bacterial) or SDA (fungal) plates. The 10^−1 dilution in neutraliser was also plated. Plates were incubated according to the organisms' requirements and the number of colonies counted at the end of the incubation period.

[7] = test system: Pseudomonas aeruginosa ATCC 9027; settings: 27° C.; FIG. 18A
Procedure: as §1, §2, §3

[8] = test system: Staphylococcus aureus ATCC 6538; settings: after the 48 hours, 27° C.; FIG. 18A
Procedure: as §1, §2, §3

E. maxima oocysts [9] = assay: Sporulation in 2% Proxitane with detergents, initial experiments (Example 4); type: cell-based
Procedure: (§4) The 2% Proxitane (~1000 ppm peracetic acid) sporulation media was prepared as described in Example 1. Detergents were added to the 2% Proxitane (~1000 ppm peracetic acid) solution at two concentrations: 0.05% solution and 0.5% solution. A 30% solution of Sarkosyl in 2% Proxitane (~1000 ppm peracetic acid) was prepared first before diluting to the desired concentration. Docusate dissolved in water with heat (up 90° C.) before adding the Proxitane.
(§5) Oocysts were sporulated in 15 or 50 mL tubes with at least 80% headspace (i.e. 10 mL liquid in 50 mL tube max). The amount of solids (unsporulated oocysts+debris) in this experiments was set to 2%, i.e. a solids ratio of 1:49.
(§6) All samples were incubated at 27° C. and about 150 rpm in the shaking incubator for 48 hours. Following sporulation, samples were either stored at 4-8° C. or evaluated immediately.
(§7) Sporulation level and oocyst health was evaluated as described in Example 1.

E. mitis oocysts [10] = assay: Sporulation in 2% Proxitane with anionic detergents, follow up trial (Example 4); type: cell-based; settings: detergent 0.05% in 2% Proxitane; FIG. 19
Procedure: as §4, §5, §6, §7

## O=CCCCC=O [0.2% glutaraldehyde, glutaraldehyde]
[1]
  Average sporulation % across all species: 78%
E. acervulina oocysts
  relative difference in oocyst counts compared to group 1 (percentage difference), R1: 1.31%
  relative difference in oocyst counts compared to group 1 (percentage difference), R3: −1%
E. brunetti oocysts
  relative difference in oocyst counts compared to group 1 (percentage difference), R1: 3%
  relative difference in oocyst counts compared to group 1 (percentage difference), R3: 91%
E. maxima oocysts [2]
  relative difference in oocyst counts compared to group 1 (percentage difference), R1: 3%
  relative difference in oocyst counts compared to group 1 (percentage difference), R3: −3%
E. mitis oocysts [3]
  relative difference in oocyst counts compared to group 1 (percentage difference), R1: 8.68%
  relative difference in oocyst counts compared to group 1 (percentage difference), R3: 1%
E. necatrix oocysts
  relative difference in oocyst counts compared to group 1 (percentage difference), R1: 7%
  relative difference in oocyst counts compared to group 1 (percentage difference), R3: −61.49%
E. tenella oocysts
  relative difference in oocyst counts compared to group 1 (percentage difference), R1: 3.12%
  relative difference in oocyst counts compared to group 1 (percentage difference), R3: 30.08%

## OO [0.5% hydrogen peroxide, hydrogen peroxide]
[1]
  Average sporulation % across all species: 81%
[1]; averaged sporulation from 3 replicates, across all the species tested (FIGS. 7-12)
  sporulating oocysts compared with control group 1: comparable to or better than control group 1
E. acervulina oocysts
  relative difference in oocyst counts compared to group 1 (percentage difference), R1: 11.16%
  relative difference in oocyst counts compared to group 1 (percentage difference), R3: −298%
E. brunetti oocysts
  relative difference in oocyst counts compared to group 1 (percentage difference), R1: −13%
  relative difference in oocyst counts compared to group 1 (percentage difference), R3: 92%
E. maxima oocysts [2]
  relative difference in oocyst counts compared to group 1 (percentage difference), R1: 5%
  relative difference in oocyst counts compared to group 1 (percentage difference), R3: −13%
E. mitis oocysts [3]
  relative difference in oocyst counts compared to group 1 (percentage difference), R1: 29.90%
  relative difference in oocyst counts compared to group 1 (percentage difference), R3: 17%
E. necatrix oocysts
  relative difference in oocyst counts compared to group 1 (percentage difference), R1: 25%
  relative difference in oocyst counts compared to group 1 (percentage difference), R3: −15.15%
E. tenella oocysts
  relative difference in oocyst counts compared to group 1 (percentage difference), R1: 17.92%
  relative difference in oocyst counts compared to group 1 (percentage difference), R3: 26.75%
[4]
  sterility: 80%
Eimeria oocysts
  sporulation compared with dichromate (in words): good sporulation compared to dichromate except with 5% solids
[5]
  samples failing sterility (fail rate): 21%
[6]
  reduction of titre before going back up at the last time point: 4.32 logs
[6]; after the 48 hours
  viability after treatment: still viable
[7]
  time to inactivation: within the first hour
[8]
  viability after treatment: still viable

## O=S(=O)([N-]Cl)c1ccccc1.[Na+] [1% chloramine B, chloramine B]
[1]
  Average sporulation % across all species: 81%
E. acervulina oocysts
  relative difference in oocyst counts compared to group 1 (percentage difference), R1: 9.43%
  relative difference in oocyst counts compared to group 1 (percentage difference), R3: −137%
E. brunetti oocysts
  relative difference in oocyst counts compared to group 1 (percentage difference), R1: −7%
  relative difference in oocyst counts compared to group 1 (percentage difference), R3: 91%
E. maxima oocysts [2]
  relative difference in oocyst counts compared to group 1 (percentage difference), R1: −4%
  relative difference in oocyst counts compared to group 1 (percentage difference), R3: −4%
E. mitis oocysts [3]
  relative difference in oocyst counts compared to group 1 (percentage difference), R1: 12.16%
  relative difference in oocyst counts compared to group 1 (percentage difference), R3: 8%
E. necatrix oocysts
  relative difference in oocyst counts compared to group 1 (percentage difference), R1: 24%
  relative difference in oocyst counts compared to group 1 (percentage difference), R3: −27.13%
E. tenella oocysts
  relative difference in oocyst counts compared to group 1 (percentage difference), R1: −1.16%
  relative difference in oocyst counts compared to group 1 (percentage difference), R3: 40.83%

## [K+].[K+].[O]=[Cr](=[O])([O-])[O][Cr](=[O])(=[O])[O-] [2% potassium dichromate, potassium dichromate, reference compound]
[4]
  sterility: failed to achieve sterility
[5]
  sterility outcome (in words): failed to sterilise the material

## CCCCCCCCCCCCOS(=O)(=O)[O-].[Na+] [SDS]
E. maxima oocysts [9]; detergent 0.5% in 2% Proxitane, 2% solids, 48 hours
  percent sporulation: 40%
E. maxima oocysts [9]; detergent in 2% Proxitane, data not shown
  sticking of debris and oocysts: reduce sticking
E. maxima oocysts [9]; upon prolonged storage
  oocyst damage: cause damage to the oocyst wall

## CCCCCCCCCCCC(=O)N(C)CC(=O)[O-].[Na+] [sarkosyl, Sarkosyl]
E. mitis oocysts [10]
  sticking of debris to oocyst walls: sticking of debris to oocyst walls was found

Source: patent publication US20260265684A1, “EIMERIA VACCINE” (priority 2024, published 2026)
